Data: ChEMBL document CHEMBL1201862, “PubChem BioAssay data set” (2004)
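Protocol summary: plate cells (96-well), add compound at 5 concentrations, incubate 48 h, interpolate endpoints linearly. GI50 = concentration required for 50% inhibition of growth.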 Calls of active or inactive are those of the source. No stated cut-off is given here; in the data, active = GI50 up to about 1.1 µM and inactive = higher.

Columns and labels:
Assay in all cases: NCI tumour cell line growth inhibition, 48 h
[1] = test system: T47D
[2] = test system: KM12
[3] = test system: NCI-H460
[4] = test system: RXF 393
[5] = test system: OVCAR-3
[6] = test system: MDA-N
[7] = test system: SK-MEL-2
[8] = test system: SW-620
[9] = test system: NCI-H23
[10] = test system: HCT-15
[11] = test system: UACC-62
[12] = test system: HOP-92
[13] = test system: SR
[14] = test system: MCF7
[15] = test system: M14
[16] = test system: OVCAR-8
[17] = test system: IGROV-1
[18] = test system: DU-145
[19] = test system: BT-549
[20] = test system: HT-29
[21] = test system: SK-MEL-28
[22] = test system: HCT-116
[23] = test system: 786-0
[24] = test system: Malme-3M
[25] = test system: NCI-H226
[26] = test system: Hs-578T
[27] = test system: SK-MEL-5
[28] = test system: U-251
[29] = test system: LOX IMVI
[30] = test system: SNB-75
[31] = test system: OVCAR-5
[32] = test system: K562
[33] = test system: A498
[34] = test system: MDA-MB-231
[35] = test system: MOLT-4
[36] = test system: SK-OV-3
[37] = test system: RPMI-8226
[38] = test system: SF-268
[39] = test system: SN12C
[40] = test system: UO-31
[41] = test system: EKVX
[42] = test system: NCI-H522
[43] = test system: TK-10
[44] = test system: NCI/ADR-RES
[45] = test system: PC-3
[46] = test system: HL-60
[47] = test system: HOP-62
[48] = test system: ACHN
[49] = test system: UACC-257
[50] = test system: OVCAR-4
[51] = test system: SF-539
[52] = test system: SNB-19
[53] = test system: A549
[54] = test system: SF-295

N/C(=N\c1ccc(Cl)cc1)NS(=O)(=O)c1cccc2nsnc12 was tested, and the GI50 [1] was 39.4 µM (inactive), the GI50 [2] was 34.3 µM (inactive) and the GI50 [3] was 19.1 µM (inactive). For the same compound, the GI50 [4] was > 100 µM (inactive), the GI50 [5] was 44.3 µM (inactive) and the GI50 [6] was 23.7 µM (inactive). The GI50 [7] was 11.9 µM (inactive), the GI50 [8] was 66.1 µM (inactive) and the GI50 [9] was 34.7 µM (inactive). The GI50 [10] was 30.3 µM, the GI50 [11] was 17 µM (inactive) and the GI50 [12] was 16.1 µM (inactive). The GI50 [13] was 33 µM (inactive), the GI50 [14] was 36.2 µM (inactive) and the GI50 [15] was 27.9 µM (inactive). For the same compound, the GI50 [16] was 27.6 µM (inactive), the GI50 [17] was 23.7 µM (inactive) and the GI50 [18] was 82.2 µM (inactive). The GI50 [19] was 25.2 µM (inactive), the GI50 [20] was 55.6 µM (inactive) and the GI50 [21] was 21 µM (inactive). The GI50 [22] was 31.8 µM (inactive), the GI50 [23] was 24.7 µM (inactive) and the GI50 [24] was 18 µM (inactive). The GI50 [25] was 68.7 µM (inactive), the GI50 [26] was 20.9 µM (inactive) and the GI50 [27] was 16.1 µM (inactive). The GI50 [28] was 19.4 µM (inactive), the GI50 [29] was 25.1 µM (inactive) and the GI50 [30] was > 100 µM (inactive). The GI50 [31] was 55.7 µM (inactive), the GI50 [32] was 36.6 µM (inactive) and the GI50 [33] was 15.6 µM (inactive). For the same compound, the GI50 [34] was 17.9 µM (inactive), the GI50 [35] was 26.9 µM (inactive) and the GI50 [36] was 74.8 µM (inactive). For the same compound, the GI50 [37] was 33.8 µM (inactive), the GI50 [38] was 26.8 µM (inactive) and the GI50 [39] was 25.4 µM (inactive). The GI50 [40] was 28.4 µM (inactive), the GI50 [41] was 19.7 µM (inactive) and the GI50 [42] was 5.92 µM (inactive). For the same compound, the GI50 [43] was 22.3 µM (inactive), the GI50 [44] was 31.3 µM (inactive) and the GI50 [45] was 17.4 µM (inactive). For the same compound, the GI50 [46] was 17.9 µM (inactive), the GI50 [47] was 94.2 µM (inactive) and the GI50 [48] was 30.3 µM (inactive). The GI50 [49] was 13.9 µM (inactive), the GI50 [50] was 15.2 µM (inactive) and the GI50 [51] was 37.3 µM (inactive). For the same compound, the GI50 [52] was 72.8 µM (inactive), the GI50 [53] was 52.1 µM (inactive) and the GI50 [54] was 45.5 µM (inactive).
